Test results published in PubChem BioAssay (NCI).
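A five-concentration, 48-hour dose response in 96-well plates underlies each endpoint, interpolated linearly between surrounding concentrations. GI50 is the concentration that inhibits growth by half. TGI: total growth inhibition.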

How the values were obtained:
Assay in all cases: DTP human tumour cell line panel, 48 h
[1] = system: 786-0 renal
[2] = system: A498 renal
[3] = system: A549 NSCLC
[4] = system: ACHN renal
[5] = system: BT-549 breast
[6] = system: CAKI-1 renal
[7] = system: CCRF-CEM leukemia
[8] = system: COLO 205 colon
[9] = system: DU-145 prostate
[10] = system: EKVX NSCLC
[11] = system: HCC-2998 colon
[12] = system: HCT-116 colon
[13] = system: HCT-15 colon
[14] = system: HL-60(TB) leukemia
[15] = system: HOP-62 NSCLC
[16] = system: HOP-92 NSCLC
[17] = system: HS 578T breast
[18] = system: HT29 colon
[19] = system: IGROV1 ovarian
[20] = system: K-562 leukemia
[21] = system: KM12 colon
[22] = system: LOX IMVI melanoma
[23] = system: M14 melanoma
[24] = system: MALME-3M melanoma
[25] = system: MCF7 breast
[26] = system: MDA-MB-231 breast
[27] = system: MDA-MB-435
[28] = system: MOLT-4 leukemia
[29] = system: NCI-H226 lung
[30] = system: NCI-H460 lung
[31] = system: NCI-H522 lung
[32] = system: NCI/ADR-RES ovarian
[33] = system: OVCAR-3 ovarian
[34] = system: OVCAR-4 ovarian
[35] = system: OVCAR-5 ovarian
[36] = system: OVCAR-8 ovarian
[37] = system: PC-3 prostate
[38] = system: RPMI-8226 leukemia
[39] = system: RXF 393 renal
[40] = system: SF-268 CNS
[41] = system: SF-295 CNS
[42] = system: SF-539 CNS
[43] = system: SK-MEL-2 melanoma
[44] = system: SK-MEL-28 melanoma
[45] = system: SK-MEL-5 melanoma
[46] = system: SK-OV-3 ovarian
[47] = system: SN12C renal
[48] = system: SNB-19 CNS
[49] = system: SNB-75 CNS
[50] = system: SR leukemia
[51] = system: SW-620 colon
[52] = system: T-47D breast
[53] = system: TK-10 renal
[54] = system: U251 CNS
[55] = system: UACC-257 melanoma
[56] = system: UACC-62 melanoma
[57] = system: UO-31 renal

## C/C(=C(/c1ccc(O)cc1)c1ccc(OCCN(C)C)cc1)c1ccc(Cl)cc1
[1]
  GI50: 14.8 µM
  TGI: 29.5 µM
[2]
  GI50: > 100 µM
  TGI: > 100 µM
[3]
  GI50: 50.9 µM
  TGI: > 100 µM
[4]
  GI50: 29.1 µM
  TGI: 89.4 µM
[5]
  GI50: 40.9 µM
  TGI: > 100 µM
[6]
  GI50: 15.8 µM
  TGI: 40.9 µM
[7]
  GI50: 25 µM
  TGI: 77.7 µM
[8]
  GI50: 17.6 µM
  TGI: 33.1 µM
[9]
  GI50: 34.3 µM
  TGI: > 100 µM
[10]
  GI50: 34.4 µM
  TGI: > 100 µM
[11]
  GI50: 18.1 µM
  TGI: 35.1 µM
[12]
  GI50: 14.8 µM
  TGI: 28.7 µM
[13]
  GI50: 18 µM
  TGI: 37.7 µM
[14]
  GI50: 17.9 µM
  TGI: 39.3 µM
[15]
  GI50: 18.2 µM
  TGI: 38.7 µM
[16]
  GI50: 22.3 µM
  TGI: 90.3 µM
[17]
  GI50: 20 µM
  TGI: 75.9 µM
[18]
  GI50: 16 µM
  TGI: 31.9 µM
[19]
  GI50: 31.6 µM
  TGI: > 100 µM
[20]
  GI50: 19.6 µM
  TGI: 53.8 µM
[21]
  GI50: 25.6 µM
  TGI: 72.6 µM
[22]
  GI50: 17.2 µM
  TGI: 32.1 µM
[23]
  GI50: 17.6 µM
  TGI: 35.3 µM
[24]
  GI50: 16 µM
  TGI: 30.9 µM
[25]
  GI50: 1.69 µM
  TGI: 27.2 µM
[26]
  GI50: 20.7 µM
  TGI: 46.1 µM
[27]
  GI50: 16.6 µM
  TGI: 31.4 µM
[28]
  GI50: 20 µM
  TGI: 52.5 µM
[29]
  GI50: 54.5 µM
  TGI: > 100 µM
[30]
  GI50: 17.5 µM
  TGI: 32.9 µM
[31]
  GI50: 17.4 µM
  TGI: 38 µM
[32]
  GI50: 28.3 µM
  TGI: > 100 µM
[33]
  GI50: 24 µM
  TGI: 69 µM
[34]
  GI50: 35.4 µM
  TGI: > 100 µM
[35]
  GI50: 33.7 µM
  TGI: > 100 µM
[36]
  GI50: 31 µM
  TGI: > 100 µM
[37]
  GI50: 23.7 µM
  TGI: 74.8 µM
[38]
  GI50: 20.8 µM
  TGI: 54.5 µM
[39]
  GI50: 13.8 µM
  TGI: 28.1 µM
[40]
  GI50: 36.3 µM
  TGI: > 100 µM
[41]
  GI50: 21 µM
  TGI: 42.1 µM
[42]
  GI50: 16.1 µM
  TGI: 30.1 µM
[43]
  GI50: 25.6 µM
  TGI: 84.2 µM
[44]
  GI50: 16.7 µM
  TGI: 31.5 µM
[45]
  GI50: 17.8 µM
  TGI: 33.5 µM
[46]
  GI50: 48.7 µM
  TGI: > 100 µM
[47]
  GI50: 32.5 µM
  TGI: > 100 µM
[48]
  GI50: 21.4 µM
  TGI: 51.1 µM
[49]
  GI50: 19.9 µM
  TGI: > 100 µM
[50]
  GI50: 18.8 µM
  TGI: 47.9 µM
[51]
  GI50: 16.2 µM
  TGI: 31.7 µM
[52]
  GI50: 12.2 µM
  TGI: 59.5 µM
[53]
  GI50: 79.7 µM
  TGI: > 100 µM
[54]
  GI50: 16.5 µM
  TGI: 31.9 µM
[55]
  GI50: 16.9 µM
  TGI: 32.7 µM
[56]
  GI50: 18.5 µM
  TGI: 36.5 µM
[57]
  GI50: 13.5 µM
  TGI: 28.8 µM

## C#C[C@]1(O)CC[C@H]2[C@@H]3CC=C4c5sc(Nc6ccc(Cl)cn6)nc5CC[C@]4(C)[C@H]3CC[C@@]21C
[1]
  GI50: 1.56 µM
  TGI: 3.42 µM
[2]
  GI50: 2.15 µM
  TGI: 4.75 µM
[3]
  GI50: 6.4 µM
  TGI: > 100 µM
[4]
  GI50: 5.07 µM
  TGI: > 100 µM
[5]
  GI50: 2.88 µM
  TGI: 25.2 µM
[6]
  GI50: 3.48 µM
  TGI: > 100 µM
[7]
  GI50: 0.0721 µM
  TGI: > 100 µM
[8]
  GI50: 23.5 µM
  TGI: > 100 µM
[9]
  GI50: > 100 µM
  TGI: > 100 µM
[10]
  GI50: 3.51 µM
  TGI: > 100 µM
[11]
  GI50: 66.8 µM
  TGI: > 100 µM
[12]
  GI50: 3.47 µM
  TGI: > 100 µM
[13]
  GI50: 3.03 µM
  TGI: > 100 µM
[14]
  GI50: 3.5 µM
  TGI: > 100 µM
[15]
  GI50: 3.31 µM
  TGI: > 100 µM
[16]
  GI50: 3.45 µM
  TGI: 73.4 µM
[17]
  GI50: 2.17 µM
  TGI: 6.53 µM
[18]
  GI50: 6.83 µM
  TGI: > 100 µM
[19]
  GI50: 9.14 µM
  TGI: > 100 µM
[20]
  GI50: 3.34 µM
  TGI: > 100 µM
[21]
  GI50: 4.04 µM
  TGI: > 100 µM
[22]
  GI50: 2.1 µM
  TGI: 4.33 µM
[23]
  GI50: 3.12 µM
  TGI: > 100 µM
[24]
  GI50: 8.97 µM
  TGI: > 100 µM
[25]
  GI50: 1.8 µM
  TGI: 4.47 µM
[26]
  GI50: 3.34 µM
  TGI: > 100 µM
[27]
  GI50: 3.73 µM
  TGI: > 100 µM
[28]
  GI50: 2.79 µM
  TGI: > 100 µM
[29]
  GI50: 7.41 µM
  TGI: > 100 µM
[30]
  GI50: 3.95 µM
  TGI: > 100 µM
[31]
  GI50: 10.5 µM
  TGI: > 100 µM
[32]
  GI50: 15.9 µM
  TGI: > 100 µM
[33]
  GI50: 7.66 µM
  TGI: > 100 µM
[34]
  GI50: 7.73 µM
  TGI: > 100 µM
[35]
  GI50: 24.1 µM
  TGI: > 100 µM
[36]
  GI50: 6.32 µM
  TGI: > 100 µM
[37]
  GI50: 1.68 µM
  TGI: 6.91 µM
[38]
  GI50: 1.03 µM
  TGI: 4.18 µM
[39]
  GI50: 0.642 µM
  TGI: 2.25 µM
[40]
  GI50: 4.35 µM
  TGI: > 100 µM
[41]
  GI50: 1.82 µM
  TGI: 3.75 µM
[42]
  GI50: 1.62 µM
  TGI: 4.03 µM
[43]
  GI50: 3.83 µM
  TGI: > 100 µM
[44]
  GI50: 1.72 µM
  TGI: 3.68 µM
[45]
  GI50: 79.5 µM
  TGI: > 100 µM
[46]
  GI50: 3.44 µM
  TGI: 13.4 µM
[47]
  GI50: > 100 µM
  TGI: > 100 µM
[48]
  GI50: 4.95 µM
  TGI: > 100 µM
[49]
  GI50: 4.07 µM
  TGI: > 100 µM
[50]
  GI50: 3.08 µM
  TGI: > 100 µM
[51]
  GI50: 4.77 µM
  TGI: > 100 µM
[52]
  GI50: 61.2 µM
  TGI: > 100 µM
[53]
  GI50: > 100 µM
  TGI: > 100 µM
[54]
  GI50: 2.66 µM
  TGI: > 100 µM
[55]
  GI50: 2.49 µM
  TGI: 6.65 µM
[56]
  GI50: 3.23 µM
  TGI: > 100 µM
[57]
  GI50: 2.96 µM
  TGI: > 100 µM
